{"source": "patent US5567736A", "about": "“Use of a choline salt to inhibit fatty liver in patients receiving total parenteral nutrition” (priority 1994, dated 1996)", "remark": "listed apart in the source", "key": {"[1]": {"tested_on": "hepatic steatosis (liver)", "from_the_text": "(§1) Four subjects who were known to have low plasma free choline levels and hepatic steatosis were studied. The subjects included 3 females and 1 person. Two subjects had short bowel syndrome from Crohn's disease, one had radiation enteritis and the fourth had pseudo-obstruction. The subjects had received home TPN for 9.7±4.7 years. Their TPN consisted of 2-3L of 15-25% dextrose solution with 3.0-3.5% amino acids, electrolytes, trace elements and vitamins. All subjects received 19.5±3.7 kcal-kg day actual body weight (range 16-24 kcal/kg/d). This level of support varied between subjects depending upon individual variation in oral intake and intestinal absorption.\nIntravenous lipid (Intralipid 20%, Clintec, Deerfield, Ill.) supplied 42.5%±25.7% of daily intravenous caloric intake. […] The TPN solution for each subject included 2.3-5 g of methionine on a daily basis depending upon the total amino acid concentration. The vitamin preparation included 5 μg vitamin B12 and 400 μg folate on a daily basis. All subjects received their TPN nightly as one dose over a period of 10-12 hours.\n(§2) Plasma-free choline level, serum SGOT, SGPT and total cholesterol levels were measured at each visit. Plasma free choline was measured by gas chromatography and mass spectrophotometry (See Jenden DJ, Roch M, Booth RA. Simultaneous measurements of endogenous and deuterium-labeled tracer variants of choline and acetylcholine in subpicomole quantities by gas chromatography spectrometry. Anal Biochem. 55:438-48, 1973; and Freeman JJ, Choi RL, Jenden DJ. Plasma choline: its turnover and exchange with brain choline. J. Neurochem. 24:729-34, 1975.)\nComputed tomography (CT) was used as a non-invasive method for quantifying hepatic fat density. Limited non-contrast CT scanning of the liver and spleen was performed using a GE 9800 CT scanner (Milwaukee, Wis.). Multiple contiguous 1-cm axial sections at 1-cm intervals were obtained. Attenuation values for regions of interest in the liver and spleen were generated from multiple representative sections. An average (mean) CT number in Hounsfield units (HU) was then calculated for each organ. Liver density was determined using two currently acceptable methods: a) the average absolute liver CT number, and b) the liver-spleen differential obtained by subtracting the average spleen CT number from the average liver CT number (to correct for interscan variability).\nIn the normal state, the liver and spleen maintain a fairly constant relationship in terms of relative CT numbers on non-contrast scans. On the main scanner employed at our institution, normal liver density corresponds to approximately 45 HU in absolute terms, and normal liver attenuation values exceed those of the spleen by approximately 8 HU (i.e., a liver-spleen differential of approximately positive 8 HU). Fat has a distinctly lower attenuation than other tissues and thus a distinct appearance on the CT image, as well as a distinctly low CT number in HU. Hepatic density and hepatic steatosis are therefore inversely related. Fatty liver was defined as an absolute CT number </=45 HU, or a liver-spleen differential of </= positive 8.0 HU (with 0-to-positive 8 HU representing borderline fatty change and </=0 HU corresponding to marked fatty infiltration)."}, "[2]": {"conditions": "all subjects; baseline 5.2±2.1, normal 11.4+/-3.7 nmol/ml", "from_the_text": "as §1, with “females aged 45, 50 and 72 years” for “females”\nas §2\nThe hepatic transaminase levels and cholesterol were determined using standard automated techniques. […]"}, "[3]": {"tested_on": "hepatic transaminase levels", "conditions": "during the study, except Subject #1; three of four subjects had normal AST and ALT at baseline", "description": "as §2\n(§3) The hepatic transaminase levels and cholesterol were determined using standard automated techniques. Plasma phospholipid bound choline was measured at baseline, at the end of the 6 week nightly choline infusion and 4 weeks later following extraction as described by Folch et al (Folch J, Lees M, Stanley GHS. A simple method for the isolation and purification of total lipids from animal tissue. J. Bio Chem. 226:497-509, 1957.) and hydrolysis as described by Jope and Jenden (Jope RS, Jenden DJ. Choline and phospholipid metabolism and the synthesis of acetylcholine in rat brain. J. Neurosci Res. 4:69-82, 1979.). All blood samples were obtained on the subjects following an overnight fast and 3-5 hours following completion of the TPN."}, "[4]": {"tested_on": "total serum cholesterol", "conditions": "during the study", "description": "as §2, §3"}, "[5]": {"from_the_text": "as §1, §2"}, "[6]": {"conditions": "Subject #4, pharmacokinetic studies preceding the 6 week choline infusion"}, "[7]": {"conditions": "concentrations as high as 10 g/l"}, "[8]": {"conditions": "various TPN nutrient solutions, at least 30 days"}}, "note": "“And” between values parts separate entries of the source, which are not always exact repeats. Equal entries are not always repeated.", "data": [{"smiles": "C[N+](C)(C)CCO.[Cl-]", "note": "[choline chloride]", "values": [{"measurement": "Liver-spleen Hounsfield unit differential, 4 Wks post choline", "setting": "[1]; 4 weeks after choline discontinued, b48 Subject 1 (baseline -47.0), b50 Subject 2 (-0.7), b52 Subject 3 (0.3)", "value": "10.6 Hounsfield unit and 15.7 Hounsfield unit and 15.0 Hounsfield unit"}, {"measurement": "Liver-spleen Hounsfield unit differential, 10 weeks post choline supplementation", "setting": "[1]; Subject 4 (baseline -9.4), 10 weeks post choline supplementation", "value": -6.3, "unit": "Hounsfield unit"}, {"measurement": "liver-spleen CT number differential, normalisation", "setting": "[1]; concurrent scans, six weeks of choline", "value": "assumed a normal or near-normal relationship"}, {"measurement": "hepatic steatosis four weeks after choline was discontinued", "setting": "[1]; follow-up post-supplementation CT", "value": "had not yet returned to baseline"}, {"measurement": "improvement of CT number difference (liver-spleen subtraction method), average", "setting": "[1]; initial CT two weeks after choline started vs baseline, 4 subjects, p=0.002", "value": "20+/-16.5 HU"}, {"measurement": "hepatic steatosis ten weeks after choline supplemented TPN discontinued", "setting": "[1]; one subject (printed #3)", "value": "had recurred"}, {"measurement": "liver density ten weeks after choline supplemented TPN discontinued", "setting": "[1]; one subject (printed #3)", "value": "appeared identical to the baseline CT scan"}, {"measurement": "liver-spleen differential ten weeks after choline supplemented TPN discontinued", "setting": "[1]; one subject (printed #3)", "value": "returned to its original, pre-choline supplementation value"}, {"measurement": "hepatic steatosis during six weeks of choline supplementation", "setting": "[1]; six weeks of choline, all four subjects", "value": "completely resolved in all four subjects"}, {"measurement": "liver density at initial CT scan", "setting": "[1]; two weeks after choline supplementation initiated", "value": "marked increase in liver density"}, {"measurement": "hepatic steatosis at initial CT scan", "setting": "[1]; two weeks after choline supplementation initiated, all 4 subjects", "value": "decreased significantly in all 4 subjects"}, {"measurement": "CT number difference (liver-spleen subtraction method), mean after choline", "setting": "[1]; two weeks of choline, 4 subjects, baseline -14.2+/-22.3 HU, p=0.002", "value": "8.4 +/-10.3 HU"}, {"measurement": "plasma free choline level after one week of choline supplementation", "setting": "[2]", "value": "increased into the normal range"}, {"measurement": "hepatic transaminase levels", "setting": "[3]", "value": "No significant decreases"}, {"measurement": "total serum cholesterol", "setting": "[4]", "value": "No change"}, {"measurement": "tolerability after dose increased back to 1 g/day", "setting": "[5]; Subject #4, from day 30 for remainder of study, 1 g/day", "value": "without complaints"}, {"measurement": "side effect requiring dose adjustment", "setting": "[5]; Subject #4, upon awakening at end of choline infusion, dose decreased from 2 g/day to 1 g/day, then 1 g every other day", "value": "mild nausea"}, {"measurement": "side effects or dose adjustment in other subjects", "setting": "[5]; subjects other than #4", "value": "No other subject experienced any side effects or required a dose adjustment"}, {"measurement": "plasma free choline level tolerated without any side effects", "setting": "[6]", "value": "≤ 230", "unit": "nmol/mL"}, {"measurement": "effect on amino acid availability of the TPN solution", "setting": "[7]", "value": "does not affect"}, {"measurement": "effect on pH of the TPN solution", "setting": "[7]", "value": "does not affect"}, {"measurement": "stability in TPN solution", "setting": "[7]", "value": "at least 30 days"}, {"measurement": "stability in various TPN nutrient solutions", "setting": "various TPN nutrient solutions", "value": "at least 30 days"}, {"measurement": "effect on TPN solution amino acid concentrations", "setting": "[8]", "value": "no adverse affects"}, {"measurement": "effect on TPN solution pH", "setting": "[8]", "value": "no adverse affects"}, {"measurement": "effect on TPN solution turbidity", "setting": "[8]", "value": "no adverse affects"}]}]}
